Assay: Stress stability tests of CBD (acidic, alkaline, oxidative, light, heat, humidity; UPLC, LC-MS, PDA-UV)
Format: physicochemical
Description: Cannabidiol samples obtained by Protocol 1 were subjected to acidic, alkaline, and oxidizing conditions in order to achieve a degradation of at least 3% or a change in appearance. The impact of light, heat, and humidity on the stability of the drug substance was investigated. The assay and purity of samples were analyzed by UPLC. The identity of unknown impurities was examined by LC-MS. The peak purity of cannabidiol after exposure to stress conditions was investigated by comparing the PDA-UV spectrum (photodiode array-ultraviolet) of cannabidiol with the spectrum of the unstressed sample and in addition by LC-MS analysis of the cannabidiol peak. The assay of the unstressed sample in FIG. 15A and FIG. 15B was used as a reference to calculate the extent of degradation of CBD under the representative stress conditions: Degradation of CBD=(1−[assay of stressed sample]/[assay unstressed sample])*100% […]
In a 20 ml GC headspace vial, 150 mg of CBD was suspended in 8 mL of 0.1 M sodium hydroxide and heated to T=80° C. for 2 h, 4 h and 6 h, respectively. […]

SMILES: C=C(C)[C@@H]1CCC(C)=C[C@H]1c1c(O)cc(CCCCC)cc1O [CBD, (1′R,2′R)-5′-methyl-4-pentyl-2′-(prop-1-en-2-yl)-1′,2′,3′,4′-tetrahydro-[1,1′-biphenyl]-2,6-diol]
- Appearance after stress (0.1 M hydrochloric acid, 80° C., 2 h, 4 h and 6 h): suspension of yellowish melted CBD in a clear colorless aqueous solution
- Appearance after stress (0.1 M sodium hydroxide, 80° C., 2 h, 4 h and 6 h): suspension of yellowish melted CBD in a violet aqueous solution
- Appearance after stress (24 h at 75% r.h.): did not change its appearance
- Proposed main degradation products(s) (Acidic, 80° C.): D9-THC
- Degradation of CBD (Acidic, 6 h, 80° C. (0.1 M hydrochloric acid)): 4%
- Proposed main degradation products(s) (Alkaline stress): several isomers of CBQ
- Degradation of CBD (Alkaline stress, stock solution at the time of the LC-MS analysis): > 80%
- Proposed main degradation products(s) (Heat, 100° C. for 24 h): Hydroxy-CBD and Hydroxy-CBQ
- Degradation of CBD (Heat, 24 h, 100° C.): 1%
- Proposed main degradation products(s) (Humidity, 24 h, 24° C.): No prominent degradation product
- Degradation of CBD (Humidity, 24 h, 24° C. (75% r.h.)): 0%
- Degradation of CBD (Light, 24 h 24° C.): 1%
- Proposed main degradation products(s) (Light, 24 h 24° C.): No prominent degradation product
- Proposed main degradation products(s) (Oxidative stress (H2O2)): Hydroxy-CBD (CBD-OH)
- Degradation of CBD (Oxidative, 6 h 80° C. (hydrogen peroxide 0.3% w/w)): 3%
- Degradation of CBD (elevated temperatures lower than 100° C.): no significant degradation
- Appearance after stress (heated to 50° C. and 60° C. for 1 hour): turned slightly yellow but did not change their physical condition
- Appearance after stress (heated to 70° C. for one hour): partially melted
- Appearance after stress (heated to 80° C. or higher): fully melted and exhibited a yellow color
- Appearance after stress (hydrogen peroxide (0.3% w/w), 80° C., 2 h, 4 h and 6 h): suspension of yellowish melted CBD in a clear colorless aqueous solution
- Appearance after stress (irradiated with light 24 h, 24° C.): turned slightly yellow

From patent US12144795B2, “Cannabidiol compositions having modified cannabinoid profiles” (priority 2018, dated 2024)
